Measurements: ChEMBL document CHEMBL5634176, “Expression of Syo_1.56 SARP Regulator Unveils Potent Elasnin Derivatives with Antibacterial Activity” (J Nat Prod, 2024)
Values after ≈ are worked out from the molar mass of the structure shown. Active and inactive are the calls of the source. The rule behind the calls is not given here.

Assays:
[1] = tested on: Staphylococcus aureus; experiment: Antibacterial activity against Staphylococcus aureus 209 incubated for 24 hrs by absorbance based analysis; assay type: functional, organism-based; details: Staphylococcus aureus, 209, 24 h
[2] = tested on: Escherichia coli; experiment: Antibacterial activity against Escherichia coli HO141 incubated for 24 hrs by absorbance based analysis; assay type: functional, organism-based; details: HO141, 24 h
[3] = tested on: Plasmodium falciparum; experiment: Antimalarial activity against Plasmodium falciparum 3D7 infected in human erythrocytes measured after 72 hrs by absorbance based analysis; assay type: functional, organism-based; details: 3D7, 72 h
[4] = Cytotoxicity against human HeLa cells incubated for 48 hrs by WST-8 assay; assay type: toxicity, cell-based
[5] = Cytotoxicity against human HL-60 cells incubated for 48 hrs by WST-8 assay; assay type: toxicity, cell-based
[6] = tested on: Staphylococcus aureus; experiment: Antibacterial activity against methicillin sensitive Staphylococcus aureus FDA209P by CLSI protocol based assay; assay type: functional
[7] = tested on: Staphylococcus aureus; experiment: Antibacterial activity against methicillin resistant Staphylococcus aureus 92-1191 by CLSI protocol based assay; assay type: functional
[8] = tested on: Staphylococcus aureus; experiment: Antibacterial activity against methicillin resistant Staphylococcus aureus ATCC BAA-1717 by CLSI protocol based assay; assay type: functional
[9] = tested on: Staphylococcus aureus; experiment: Antibacterial activity against methicillin resistant Staphylococcus aureus ATCC BAA-1718 by CLSI protocol based assay; assay type: functional
[10] = tested on: Staphylococcus aureus; experiment: Antibacterial activity against methicillin resistant Staphylococcus aureus NCTC8173 by CLSI protocol based assay; assay type: functional
[11] = Inhibition of metallo-beta lactamase (unknown origin) by nitrocefin method; parameters: species or system Bacteria
[12] = tested on: Escherichia coli; experiment: Potentiation of meropenem induced antibacterial activity against drug-resistant Escherichia coli KB366 expressing metallo-betalactamase by agar disk diffusion method; assay type: functional, organism-based

Row | Compound | IC50 [1] | IC50 [2] | IC50 [3] | IC50 at 48 h [4] | IC50 at 48 h [5] | MIC [6] | MIC [7] | MIC [8] | MIC [9] | MIC [10] | IC50 [11] | Activity [12]
1 | CCCCCCc1c(O)c(CCCC)c([C@H](CCCC)C(=O)CCCCC)oc1=O | 0.8 µg/mL (≈ 1.9 µM) | > 10 µg/mL | 8 µg/mL (≈ 19 µM) | 7.6 µg/mL (≈ 18.1 µM) | 8.4 µg/mL (≈ 20 µM) | 2.5 µg/mL (≈ 5.94 µM) | 2.5 µg/mL (≈ 5.94 µM) | 2.5 µg/mL (≈ 5.94 µM) | 2.5 µg/mL (≈ 5.94 µM) | 2.5 µg/mL (≈ 5.94 µM) | > 100 µM | –
2 | CCCCc1c([C@H](CCCC)C(=O)CCCC(C)C)oc(=O)c(CCC(C)C)c1O | 1.1 µg/mL (≈ 2.62 µM) | > 10 µg/mL | 0.1 µg/mL (≈ 0.238 µM) | 8.4 µg/mL (≈ 20 µM) | 8.4 µg/mL (≈ 20 µM) | 3 µg/mL (≈ 7.13 µM) | 6 µg/mL (≈ 14.3 µM) | 3 µg/mL (≈ 7.13 µM) | 3 µg/mL (≈ 7.13 µM) | 3 µg/mL (≈ 7.13 µM) | 15.3 µM | inactive
3 | CCCCCC(=O)[C@@H](CCCC)c1oc(=O)c(CCC(C)C)c(O)c1CCCC | 0.7 µg/mL (≈ 1.72 µM) | > 10 µg/mL | 1.3 µg/mL (≈ 3.2 µM) | 7.3 µg/mL (≈ 18 µM) | 4.9 µg/mL (≈ 12.1 µM) | 6 µg/mL (≈ 14.8 µM) | 6 µg/mL (≈ 14.8 µM) | 6 µg/mL (≈ 14.8 µM) | 3 µg/mL (≈ 7.38 µM) | 3 µg/mL (≈ 7.38 µM) | 10.8 µM | inactive
4 | C[C@H](CS)C(=O)N1CCC[C@H]1C(=O)O [CAPTOPRIL] | – | – | – | – | – | – | – | – | – | – | 69 µM | –
5 | CCCCCCCc1oc(=O)c(CCCC)c(O)c1CCCC | 2.6 µg/mL (≈ 8.06 µM) | > 10 µg/mL | 0.1 µg/mL (≈ 0.31 µM) | > 10 µg/mL | > 10 µg/mL | 16 µg/mL (≈ 49.6 µM) | 8.1 µg/mL (≈ 25.1 µM) | 16 µg/mL (≈ 49.6 µM) | 8.1 µg/mL (≈ 25.1 µM) | 8.1 µg/mL (≈ 25.1 µM) | > 100 µM | –
6 | CCCCCc1oc(=O)c(CCCC)c(O)c1CCCC | 1.3 µg/mL (≈ 4.42 µM) | > 10 µg/mL | 1.9 µg/mL (≈ 6.45 µM) | > 10 µg/mL | > 10 µg/mL | 15 µg/mL (≈ 50.9 µM) | 15 µg/mL (≈ 50.9 µM) | 15 µg/mL (≈ 50.9 µM) | 15 µg/mL (≈ 50.9 µM) | 15 µg/mL (≈ 50.9 µM) | > 100 µM | –
7 | CCCCc1c(CCCC(C)C)oc(=O)c(CCCC)c1O | 1.3 µg/mL (≈ 4.21 µM) | > 10 µg/mL | > 10 µg/mL | > 10 µg/mL | > 10 µg/mL | 15 µg/mL (≈ 48.6 µM) | 15 µg/mL (≈ 48.6 µM) | 7.7 µg/mL (≈ 25 µM) | 7.5 µg/mL (≈ 24.3 µM) | 7.5 µg/mL (≈ 24.3 µM) | > 100 µM | –
8 | CCCCCC(=O)[C@@H](CCCC)c1oc(=O)c(CCCC)c(O)c1CCCC | 0.7 µg/mL (≈ 1.78 µM) | > 10 µg/mL | 2.3 µg/mL (≈ 5.86 µM) | > 10 µg/mL | > 10 µg/mL | 5 µg/mL (≈ 12.7 µM) | 5 µg/mL (≈ 12.7 µM) | 5 µg/mL (≈ 12.7 µM) | 5 µg/mL (≈ 12.7 µM) | 5 µg/mL (≈ 12.7 µM) | 24.1 µM | inactive
9 | CCCCc1c([C@H](CCC(C)C)C(=O)CCCC(C)C)oc(=O)c(CCCC)c1O | 0.5 µg/mL (≈ 1.19 µM) | > 10 µg/mL | 7.7 µg/mL (≈ 18.3 µM) | 8.9 µg/mL (≈ 21.2 µM) | 9.3 µg/mL (≈ 22.1 µM) | 5 µg/mL (≈ 11.9 µM) | 5 µg/mL (≈ 11.9 µM) | 2.5 µg/mL (≈ 5.94 µM) | 2.5 µg/mL (≈ 5.94 µM) | 2.5 µg/mL (≈ 5.94 µM) | > 100 µM | –
10 | CCCCc1c([C@H](CCCC)C(=O)CCC(C)C)oc(=O)c(CCCC)c1O | 1 µg/mL (≈ 2.55 µM) | > 10 µg/mL | 9.4 µg/mL (≈ 23.9 µM) | > 10 µg/mL | > 10 µg/mL | 10 µg/mL (≈ 25.5 µM) | 10 µg/mL (≈ 25.5 µM) | 5 µg/mL (≈ 12.7 µM) | 5 µg/mL (≈ 12.7 µM) | 5 µg/mL (≈ 12.7 µM) | > 100 µM | –
11 | CCCCCC(=O)[C@@H](CCC(C)C)c1oc(=O)c(CCCC)c(O)c1CCCC | 0.5 µg/mL (≈ 1.23 µM) | > 10 µg/mL | 6.9 µg/mL (≈ 17 µM) | 9.7 µg/mL (≈ 23.9 µM) | 9.7 µg/mL (≈ 23.9 µM) | 5 µg/mL (≈ 12.3 µM) | 5 µg/mL (≈ 12.3 µM) | 2.5 µg/mL (≈ 6.15 µM) | 5 µg/mL (≈ 12.3 µM) | 2.5 µg/mL (≈ 6.15 µM) | > 100 µM | –
12 | CCCCc1c(O)c(CCC(C)C)c([C@H](CCCC)C(=O)CCCC(C)C)oc1=O | 0.5 µg/mL (≈ 1.19 µM) | > 10 µg/mL | 6.3 µg/mL (≈ 15 µM) | 6.3 µg/mL (≈ 15 µM) | 5.5 µg/mL (≈ 13.1 µM) | 2.5 µg/mL (≈ 5.94 µM) | 2.5 µg/mL (≈ 5.94 µM) | 2.5 µg/mL (≈ 5.94 µM) | 2.5 µg/mL (≈ 5.94 µM) | 2.5 µg/mL (≈ 5.94 µM) | > 100 µM | –
13 | C[C@@H](O)[C@H]1C(=O)N2C(C(=O)O)=C(S[C@@H]3CN[C@H](C(=O)N(C)C)C3)[C@H](C)[C@H]12 [MEROPENEM] | – | – | – | – | – | 0.031 µg/mL (≈ 0.0808 µM) | 256 µg/mL (≈ 668 µM) | 16 µg/mL (≈ 41.7 µM) | 0.125 µg/mL (≈ 0.326 µM) | 0.125 µg/mL (≈ 0.326 µM) | – | –
14 | CCCCCC(=O)[C@@H](CCCC)c1oc(=O)c(CC(C)C)c(O)c1CCCC | 1.6 µg/mL (≈ 4.08 µM) | > 10 µg/mL | > 10 µg/mL | > 10 µg/mL | > 10 µg/mL | 10 µg/mL (≈ 25.5 µM) | 20 µg/mL (≈ 50.9 µM) | 10 µg/mL (≈ 25.5 µM) | 10 µg/mL (≈ 25.5 µM) | 10 µg/mL (≈ 25.5 µM) | > 100 µM | –
